Data from patent US20220054575A1, “PROTECTION AGAINST CORONAVIRUS INFECTION BY EXTRACTS AND EXTRACT COMPONENTS” (Natreon, Inc., priority 2020, published 2022).

Assay: Solubility (description)
Type: physicochemical
Details: for solubility in organic solvent: DMSO / DMF

Structure (SMILES): O=c1oc2cc(O)ccc2c2ccc(O)cc12 [3,8-dihydroxy-6H-benzo[c]chromen-6-one]
- solubility in organic solvent: soluble in DMSO
- solubility in water: largely insoluble in water

Structure (SMILES): O=c1oc2cc(O)ccc2c2ccccc12 [3-hydroxy-6H-benzo[c]chromen-6-one]
- solubility in organic solvent: soluble in DMSO and DMF
- solubility in water: largely insoluble in water
